This passage reports TGI and GI50 results from PubChem BioAssay (NCI).

Holding throughout (assay): inhibition of tumour cell growth, NCI panel, 48 h
Experiment [1] concerns 786-0 renal.
Experiment [2] deals with A498 renal.
Experiment [3] deals with COLO 205 colon.
Experiment [4] concerns LOX IMVI melanoma.
Experiment [5] relates to OVCAR-4 ovarian.
Experiment [6] relates to RPMI-8226 leukemia.
Experiment [7] relates to SF-295 CNS.
The test system of experiment [8] is SK-MEL-2 melanoma.
Experiment [9] has as its system SK-MEL-28 melanoma.
Experiment [10] deals with UACC-257 melanoma.

SMILES strings stand for the structures.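 Results reflect a 48-hour exposure of cells in 96-well plates to compound at five concentrations. Abbreviation: GI50, concentration required for 50% inhibition of growth. Definition used: TGI = concentration required for complete inhibition of growth.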

For `COC(=O)C(CC(=O)Nc1ccc(Cl)c(Cl)c1)C(=O)C(=O)NC1C2CC3CC(C2)CC1C3` (stereo not given), the TGI in [1], in experiment [2], in experiment [3], in experiment [4], in [5] and in experiment [6] was greater than 100 µM throughout. Besides, the TGI in experiment [7], in [8], in experiment [9] and in [10] was greater than 100 µM in each case.

`CCOC1C=CCCO1` (stereo not given): the TGI in [1], in experiment [2], in [3], in experiment [4], in experiment [5] and in [6] was greater than 100 µM throughout. Moreover, the TGI in experiment [7], in [8], in experiment [9] and in experiment [10] was greater than 100 µM throughout.

As to `COc1cc(/C=C/C(=O)c2c(C)n([O-])c3ccc(Cl)cc3[n+]2=O)cc(OC)c1OC`, the GI50 was 33.1 µM in experiment [1]; 23.5 µM in [2]; greater than 100 µM in [3]; 90.2 µM in experiment [4]; greater than 100 µM in experiment [5]; greater than 100 µM in [6]. In addition, the GI50 is 35 µM in experiment [7], greater than 100 µM in [8], greater than 100 µM in experiment [9] and 49.6 µM in [10]. Also, the TGI in experiment [1], in experiment [2], in experiment [3], in experiment [4], in experiment [5] and in [6] was greater than 100 µM in each case. Moreover, the TGI in experiment [7], in [8], in experiment [9] and in experiment [10] was greater than 100 µM throughout.

Take `O=C1C[C@@H]2CCCC[C@@H]2C12SCCS2`: the TGI in experiment [1], in experiment [2], in [3], in experiment [4], in experiment [5] and in [6] was greater than 100 µM throughout. The TGI in [7], in experiment [8], in [9] and in experiment [10] was greater than 100 µM each time.

Turning to `O=C1/C(=C/c2ccc(Cl)cc2)COc2ccc(O)c(O)c21`, the GI50 in experiment [1] is 1.42 µM; in experiment [2], 2.95 µM; in experiment [3] it was 1.79 µM; in [4] it was 0.33 µM; in [5], 1.33 µM; in [6], 0.2 µM. Also, the GI50 in [7] was 3.37 µM; in experiment [8], 2.51 µM; in experiment [9], 1.53 µM; in [10] it was 1.65 µM. Further, the TGI in experiment [1] worked out at 5.17 µM; in [2] it was 9.19 µM; in experiment [3], 3.31 µM; in experiment [4], 1.36 µM; in [5] it was 2.71 µM; in [6], 0.512 µM. Moreover, the TGI in experiment [7] was determined as 13.2 µM; in [8], 7.63 µM; in [9], 3.06 µM; in experiment [10], 3.88 µM.

As for `C[C@@H]1C[C@@]2(O[C@@H]2C)C(=O)O[C@@H]2CCN3CC=C(COC(=O)[C@]1(C)O)[C@H]23`, the TGI in experiment [1], in [2], in experiment [3], in [4], in experiment [5] and in [6] was greater than 100 µM throughout. For the same compound, the TGI in [7], in experiment [8], in [9] and in [10] was greater than 100 µM throughout.

In the case of `O=C(CCCCCCC(=O)Nc1ccc2c(c1)/C(=C/c1ccc[nH]1)C(=O)N2)NO`, the GI50 in experiment [1] was 2.37 µM; in experiment [2], 0.358 µM; in [3], 0.245 µM; in experiment [4], 0.548 µM; in [5], 1.27 µM; in [6] it was 2.9 µM. For the same compound, the GI50 in experiment [7] is 1.3 µM; in experiment [8], 0.851 µM; in [9] it was 0.372 µM; in [10] it was 0.353 µM. In addition, the TGI in [1] is 26.5 µM; in experiment [2], 2.06 µM; in experiment [3] it was 1.4 µM; in experiment [4] it was 2.08 µM; in experiment [5] it was 52 µM; in experiment [6] it was greater than 100 µM. For the same compound, the TGI in [7] stood at 7.51 µM; in experiment [8], 7.13 µM; in [9], 9.3 µM; in [10], 5.44 µM.

As to `O=C1C[C@H]2CC3(CC[C@H]2CN1)OCCO3`, the TGI in experiment [1], in experiment [2], in [3], in [4], in experiment [5] and in experiment [6] was greater than 100 µM each time. Further, the TGI in experiment [7], in experiment [8], in experiment [9] and in experiment [10] was greater than 100 µM throughout.

In the case of `O=C(NCP(=O)(O)O)c1cccnc1`, the TGI in experiment [1], in experiment [2], in experiment [3], in [4], in experiment [5] and in experiment [6] was greater than 100 µM throughout. For the same compound, the TGI in experiment [7], in [8], in [9] and in [10] was greater than 100 µM throughout.

`S=C(Nc1ccccc1)N(Cc1ccccc1)c1ccccc1`: the TGI in experiment [1] was greater than 100 µM; in experiment [2], 67.2 µM; in experiment [3], 51.8 µM; in experiment [4], greater than 100 µM; in experiment [5] it was 93.6 µM; in experiment [6], greater than 100 µM. The TGI in [7] was greater than 100 µM; in experiment [8], 41.2 µM; in [9], 78.4 µM; in experiment [10] it was 54.6 µM.

Regarding `CCOC(=O)NC(=O)c1cn(CCN2CCN(C(=O)NCCCCCCNC(=O)N3CCN(CCn4cc(C(=O)NC(=O)OCC)c(=O)n(CCN(CC)CC)c4=O)CC3)CC2)c(=O)n(CCC(CC)CC)c1=O`, the TGI in experiment [1], in [2], in experiment [3], in experiment [4], in [5] and in experiment [6] was greater than 100 µM in each case. Moreover, the TGI in experiment [7], in [8], in [9] and in experiment [10] was greater than 100 µM throughout.

Regarding `NCCCCN(Cc1nc2ccccc2[nH]1)[C@H]1CCCc2cccnc21`, the GI50 in experiment [1] is 21.2 µM; in experiment [2], 7.81 µM; in experiment [3], 7.65 µM; in experiment [4], 12 µM; in experiment [5] it was 10.6 µM; in experiment [6], 12 µM. In addition, the GI50 in [7] was 12.8 µM; in [8], 16.7 µM; in experiment [9] it was 14.9 µM; in experiment [10] it was 15.3 µM. Also, the TGI in experiment [1] is greater than 77.1 µM; in [2], greater than 51.8 µM; in experiment [3] it was 26.2 µM; in experiment [4], 38.2 µM; in experiment [5], greater than 82.7 µM; in experiment [6], 47.6 µM. Also, the TGI in experiment [7] came to 30.7 µM; in experiment [8], 45.1 µM; in experiment [9], 34.8 µM; in [10], 31.4 µM.
